Data reported in the supplement of paper PMC10307832.

Experiments:
Assay in all cases: relative viability (nuclei count vs DMSO), 5 days (fraction); higher = more cells survive
Sulindac + Navitoclax = compound: CC1=C(CC(=O)O)c2cc(F)ccc2/C1=C\c1ccc([S+](C)[O-])cc1 [Sulindac] + CC1(C)CCC(c2ccc(Cl)cc2)=C(CN2CCN(c3ccc(C(=O)NS(=O)(=O)c4ccc(N[C@H](CCN5CCOCC5)CSc5ccccc5)c(S(=O)(=O)C(F)(F)F)c4)cc3)CC2)C1 [Navitoclax] (partner 0.5 µM)
How it was run: (§1)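 Lung cancer cell lines in 1536-well plates were dosed by pin tool the day after seeding, either with one drug alone or with a fixed anchor-drug dose plus five library-drug doses (not always all listed) in √10 steps. After 5 days, cells were fixed and their nuclei stained in one step (final 0.05% Triton X-100, 1% formaldehyde, 1 ug/ml Hoechst), then counted on 4× images. Relative viability is the nuclei count in treated wells divided by that in vehicle wells. Values are medians of duplicate plates.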

Sulindac + Lapatinib = compound: CC1=C(CC(=O)O)c2cc(F)ccc2/C1=C\c1ccc([S+](C)[O-])cc1 [Sulindac] + CS(=O)(=O)CCNCc1ccc(-c2ccc3ncnc(Nc4ccc(OCc5cccc(F)c5)c(Cl)c4)c3c2)o1 [Lapatinib] (partner 2 µM)
How it was run: as §1

[1] = compound: CN[C@@H]1C[C@H]2O[C@@](C)([C@@H]1OC)n1c3ccccc3c3c4c(c5c6ccccc6n2c5c31)C(=O)NC4 [Staurosporine] + CC(C)C[C@H](NC(=O)[C@H](Cc1ccccc1)NC(=O)c1cnccn1)B(O)O [Bortezomib] (partner 0.002 µM)
How it was run: as §1

[2] = compound: CN[C@@H]1C[C@H]2O[C@@](C)([C@@H]1OC)n1c3ccccc3c3c4c(c5c6ccccc6n2c5c31)C(=O)NC4 [Staurosporine] + C[C@]1(O)C[C@@H](c2nc(-c3ccc4ccc(-c5ccccc5)nc4c3)c3c(N)nccn32)C1 [Linsitinib] (partner 1 µM)
How it was run: as §1

| Cell Line | relative viability (Sulindac + Navitoclax; first compound 0.08 µM) | relative viability (Sulindac + Navitoclax; first compound 0.253 µM) | relative viability (Sulindac + Navitoclax; first compound 0.8 µM) | relative viability (Sulindac + Navitoclax; first compound 2.53 µM) | relative viability (Sulindac + Navitoclax; first compound 8 µM) | relative viability (Sulindac + Lapatinib; first compound 0.08 µM) | relative viability (Sulindac + Lapatinib; first compound 0.253 µM) | relative viability (Sulindac + Lapatinib; first compound 0.8 µM) | relative viability (Sulindac + Lapatinib; first compound 2.53 µM) | relative viability (Sulindac + Lapatinib; first compound 8 µM) | relative viability ([1]; first compound 0.005 µM) | relative viability ([1]; first compound 0.01581 µM) | relative viability ([1]; first compound 0.05 µM) | relative viability ([1]; first compound 0.1581 µM) | relative viability ([1]; first compound 0.5 µM) | relative viability ([2]; first compound 0.005 µM) | relative viability ([2]; first compound 0.05 µM) | relative viability ([2]; first compound 0.1581 µM) | relative viability ([2]; first compound 0.5 µM) | relative viability ([2]; first compound 0.01581 µM) |
| --- | --- | --- | --- | --- | --- | --- | --- | --- | --- | --- | --- | --- | --- | --- | --- | --- | --- | --- | --- | --- |
| A-427 | 1.07 | 0.94 | 0.985 | 0.926 | 1.04 | 1.23 | 1.02 | 1.07 | 1.05 | 1.1 | 1.02 | 0.87 | 0.367 | 0.131 | 0.133 | 1.05 | 0.43 | 0.313 | 0.189 | – |
| NCI-H460 | 1.88 | 1.44 | – | 1.07 | 1.3 | 1.97 | 1.38 | – | 1.12 | 1.19 | 1.08 | 0.733 | 0.463 | 0.0074 | 0.0085 | 0.406 | 0.0258 | 0.0051 | 0.0055 | 0.169 |
| NCI-H2085 | 1.18 | 1.21 | 0.979 | 1.18 | 1.14 | 0.746 | 0.693 | 0.668 | 0.69 | 0.777 | 0.856 | 0.565 | 0.604 | 0.499 | 0.402 | 0.745 | 0.541 | 0.38 | 0.337 | 0.502 |
| IA-LM | 0.696 | 0.863 | – | 0.81 | 0.79 | 0.724 | 0.8 | 0.68 | 0.782 | 0.798 | 0.188 | – | 0.238 | 0.131 | 0.07 | – | 0.16 | 0.128 | 0.07 | 0.271 |
| NCI-H3122 | 0.913 | 0.999 | 1.01 | 0.992 | 1.05 | 1.05 | 0.978 | 1.03 | 0.966 | 1.03 | 1.04 | 0.355 | 0.947 | 0.821 | 0.362 | 1.11 | 0.874 | 0.544 | 0.247 | 0.561 |
| NCI-H596 | 0.901 | 0.953 | 0.812 | 1.02 | 1.13 | 1.02 | 0.983 | 1.01 | 0.973 | 1.21 | 1.38 | 0.549 | 1 | 0.282 | 0.393 | 1.34 | 0.854 | 0.385 | 0.148 | 0.854 |
| NCI-H1792 | 0.796 | 0.682 | – | 0.681 | 0.691 | 1.13 | 0.982 | – | 0.947 | 1.12 | 1.05 | 0.797 | 0.372 | 0.182 | 0.196 | 0.488 | 0.105 | 0.114 | 0.0997 | 0.287 |
| NCI-H1755 | 1.17 | 1.09 | 0.821 | 1.08 | 1.13 | 1.34 | 1.04 | 0.912 | 1.06 | 1.19 | 0.788 | 0.364 | 0.251 | 0.171 | 0.157 | 0.856 | 0.283 | 0.18 | 0.171 | 0.595 |
| EPLC-272H | 1.16 | – | 0.828 | 1.23 | 1.27 | 0.987 | – | 0.602 | 0.78 | 1.24 | 1.01 | 0.195 | 0.447 | 0.181 | 0.126 | 1.17 | 0.352 | 0.25 | 0.234 | 0.732 |
| NCI-H2228 | 0.937 | 0.967 | 0.839 | 1.46 | 1.01 | 1.4 | 1.3 | 0.575 | 1 | 0.917 | 0.782 | 0.421 | 0.419 | 0.227 | 0.118 | 0.608 | 0.141 | 0.183 | 0.113 | 0.483 |
